Earlier results, collected in patent publication US20260273014A1, “Herbal composition for metabolic syndromes and method of treatment thereof” (priority 2019, published 2026).

Conditions: pure mangiferin (Acosta et al. 2016)

solubility: an issue in most biological models
SMILES: O=c1c2cc(O)c(O)cc2oc2cc(O)c([C@@H]3O[C@H](CO)[C@@H](O)[C@H](O)[C@H]3O)c(O)c12 [mangiferin]
